# Laboratory results reported in patent US9567629B2, “Labeled enzyme compositions, methods and systems” (LIFE TECHNOLOGIES CORPORATION, priority 2009, dated 2017).
# What was measured:
# [1] = tested on: [enzyme•DNA•nucleotide] ternary complex with AF647-C6-dG6P; assay: Stopped-flow measurements of t−1 (nucleotide dissociation from ternary complex); type: biochemical; settings: 330 nM polymerase, 100 nM duplex, 7 μM AF647-C6-dG6P, chase 50 μM non-labeled dNTP, 2 mM MnCl2
# Description: The stopped-flow techniques for measuring t−1 (1/k−1) followed the techniques described by M. Bakhtina (2009 Biochemistry 48:3197-3208).
# The rate of the nucleotide dissociation (k1) from the ternary complex of [enzyme•DNA•nucleotide] was measured in an Applied Photophysics SX20 stopped-flow spectrometer by monitoring changes […] a duplex Alexa fluor 546 dye-labeled-DNA template following the mixing of the [enzyme•DNA•labeled nucleotide] ternary complex with 50 μM cognate non-labeled deoxynucleoside triphosphate in a buffer containing 50 mM Tris-HCl (pH 7.5), 50 mM NaCl, 4 mM DTT, 0.2% BSA, and 2 mM MnCl2.
# The ternary complexes were prepared using: 330 nM polymerase, 100 nM template/primer duplex, and 7 μM terminal phosphate-labeled nucleotides (AF647-C6-dG6P).
# The averaged stopped-flow fluorescence traces (>1.5 msec) were fitted with a single exponential equation (2) to extrapolate the rate of the nucleotide dissociation (k−1) from the [enzyme•DNA•nucleotide] ternary complex. Fluorescence=A1*e^−k−1*t+C (equation 2) where A1 represents the corresponding fluorescence amplitude, C is an offset constant, and k−1 and the observed rate constants for the fluorescence transition.
# [2] = tested on: dye-labeled primer-template duplex with AF647-C6-dG6P; assay: Stopped-flow measurements of tpol (nucleotide incorporation kinetics); type: biochemical; settings: 330 nM polymerase, 100 nM template/primer duplex, 7 μM AF647-C6-dG6P, 2 mM MnCl2
# Description: In this example, the t−1 and tpol values of a Phi-29 polymerase comprising the amino acid sequence of SEQ ID NO: 3 and a B103 polymerase comprising the amino acid sequence of SEQ ID NO: 34 (referred to as “mB103” in the table below) and including amino acid substitutions at various positions were measured using a stopped-flow procedure. The stopped-flow techniques for measuring tpol (1/kpol) followed the techniques described by MP Roettger (2008 Biochemistry 47:9718-9727; M. Bakhtina 2009 Biochemistry 48:3197-320).
# The template sequence (SEQ ID NO: 44) further included an Alexa Fluor 546 dye moiety bonded to the 5′ position of the template.
# The kinetics of nucleotide incorporation by each polymerase was measured in an Applied Photophysics SX20 stopped-flow spectrometer by monitoring changes in fluorescence from the dye-labeled primer-template duplex complexed to enzyme, following the mixing of the enzyme-DNA complex with dye-labeled nucleotides. […]
# The primer and template were annealed to form a dye-labeled primer-template duplex using standard methods. […] The dye-labeled nucleotide AF647-C6-dG6P was then added to a final concentration of 7 μM, and the resulting fluorescence was monitored over time. […]
substance,measurement,setting,value
Phi-29 (exo−): exonuclease-minus Phi-29 polymerase (Phi-29 polymerase comprising SEQ ID NO: 3) [reference compound],t−1,[1],27
same,tpol,[2],11
